Consider 23 compounds from patent US10730849B2, “Benzo[b]thiophene compounds as STING agonists” (MERCK SHARP & DOHME CORP., priority 2016, dated 2020).

One test has as its target full-length HAQ STING (Homo sapiens (Human), UniProt Q86WV6, G230A/H232R/R293Q/R71H). Put plainly: 3H-cGAMP filtration binding assay (HAQ STING). Conditions: competition with tritiated cGAMP, HAQ STING membrane. An excerpt: The ability of compounds to bind STING is quantified by the ability to compete with tritiated cGAMP ligand for human STING receptor membrane using a radioactive filter-binding assay. The binding assay employs STING receptor obtained from Hi-Five cell membranes overexpressing full-length HAQ STING prepared in-house and tritiated cGAMP ligand also purified in-house.
The ability of compounds to bind STING is quantified by their ability to compete with tritiated cGAMP ligand for human STING receptor membrane using a radioactive filter-binding assay. The binding assay employs STING receptor obtained from Trichoplusia ni cell membranes (T. ni; Expression Systems, cat #94-002F, www.exressionsystems.com) overexpressing full-length HAQ STING and tritiated cGAMP ligand.
The basic HAQ STING filtration assay protocol is as follows:
Compound and membrane then preincubated for 60 min at RT to allow compound binding to equilibrate. Following equilibration, 8 nM of [^3H]c-GAMP ligand was prepared by diluting into assay buffer, and 50 uL of this working stock was then manually added to each well of the assay plate. […] The filter plates were then dried at 55° C. for 30 min using a pressurized oven before 30 uL of ULTIMA GOLD F scintillate was added to each well. Tritium levels for each reaction well were then measured using a PerkinElmer TopCount plate reader.
(§1) After normalization to controls, the percent activity for each compound concentration was calculated by measuring the amount of remaining radioactivity. The plot of percent activity versus the log of compound concentration was fit with a 4-parameter dose response equation to calculate EC50 values.

The subject of a further test is THP1 cells. As to the kind of experiment: IFN-β secretion in THP1 cell culture (5 h). It is filed as cell-based, human. To be noted: relative to 30 uM cGAMP. The method, then:
The ability of compounds to stimulate the secretion of interferon-beta from THP1 cells was measured using a human IFN-3 AlphaLISA kit (Perkin Elmer, Cat. No. AL265F). The basic protocol is as follows:
The cell viability and count was ascertained using a Beckman Coulter V-Cell XR cell counter. The cells suspension was centrifuged at 200×g for 5 min at RT. Cells were resuspended to a density of 0.8×10^6/mL in 37° C. assay medium. Subsequent liquid transfers were performed using either a Matrix electronic multichannel pipette or an Agilent Bravo Automated Liquid Handling Platform.
The assay was started by dispensing 40 μL of the previously prepared cell suspension into the wells of the plate containing compounds. After 5 h incubation at 37° C., 5% CO2 in a humidified atmosphere, the plate of cells and compounds was centrifuged at 200×g for 5 min at RT. […] To these supernatant-containing wells was added 10 μL of 5× Anti-Analyte Acceptor beads ([…] of AlphaLISA HiBlock Buffer) and incubated for 30 min at RT while shaking on an orbital plate shaker. To each well was added 10 μL of 5× Biotinylated Antibody Anti-analyte (5 nM in AlphaLISA HiBlock Buffer) and incubated on an orbital plate shaker for 60 min at RT or overnight at 4° C. To each well was added 25 μL of 2× SA-Donor beads ([…] in AlphaLISA HiBlock Buffer) and incubated for 30-45 min at RT in the dark while shaking on an orbital plate shaker. The plate was then read on a Perkin Elmer Envision (λex=680 nm, […]). The percent effect of the AlphaLISA signal at each compound concentration was calculated based on 30 uM cGAMP positive controls and 0.3% DMSO negative controls. The plot of percent effect versus the log of compound concentration was fit with a 4-parameter concentration response equation to calculate EC50 values.
Compounds of the disclosure were evaluated for IFN-3 secretion in THP1 cell culture as described above.

For the next test, the target named is full-length WT STING (Homo sapiens (Human), UniProt Q86WV6, H232R). Put plainly: 3H-cGAMP filtration binding assay (WT STING). To be noted: for EC50: competition with tritiated cGAMP, WT STING membrane; for inhibition at 20 µM: WT STING, compound at 20 uM.
Description: The ability of compounds to bind STING is quantified by their ability to compete with tritiated cGAMP ligand for human STING receptor membrane using a radioactive filter-binding assay. The binding assay employs STING receptor obtained from Trichoplusia ni cell membranes (T. ni; Expression Systems, cat #94-002F, www.expressionsystems.com) overexpressing full-length WT STING and tritiated cGAMP ligand.
The basic WT STING filtration assay protocol is as follows:
The filter plates were then dried at 55° C. for 30 min using a pressurized VWR oven before 30 uL of ULTIMA GOLD F scintillate was added to each well. Tritium levels for each reaction well were then measured using a PerkinElmer TopCount plate reader.
as §1

Sequence of full-length WT STING (Q86WV6 other isoform, or with tags, fused parts or gaps H232R (already in the parent)): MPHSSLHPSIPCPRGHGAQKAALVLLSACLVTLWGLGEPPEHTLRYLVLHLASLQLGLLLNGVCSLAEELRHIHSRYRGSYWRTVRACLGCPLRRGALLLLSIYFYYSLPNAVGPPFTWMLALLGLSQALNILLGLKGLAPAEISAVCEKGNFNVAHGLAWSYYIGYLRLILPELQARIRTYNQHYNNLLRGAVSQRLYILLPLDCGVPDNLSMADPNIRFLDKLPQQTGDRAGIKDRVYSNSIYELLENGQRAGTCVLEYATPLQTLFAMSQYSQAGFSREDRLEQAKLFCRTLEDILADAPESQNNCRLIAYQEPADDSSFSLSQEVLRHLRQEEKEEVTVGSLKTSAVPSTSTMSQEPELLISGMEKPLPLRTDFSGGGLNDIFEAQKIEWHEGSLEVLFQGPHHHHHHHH
Sequence of full-length HAQ STING (Q86WV6 other isoform, or with tags, fused parts or gaps, stated change not applied): as the sequence (Q86WV6 other isoform, or with tags, fused parts or gaps H232R (already in the parent)) above, with R71H, G230A, R293Q counted along it

As for `COc1cc2sc(C(=O)[C@@H]3C[C@@H]3C(=O)O)cc2cc1Br` (single isomer, unassigned) [Example 5, 2-(5-bromo-6-methoxybenzo[b]thiophene-2-carbonyl)cyclopropane-1-carboxylic acid], it took 1.14 µM to reach a half-maximal effect at full-length HAQ STING (EC50). Further, the “% Effect at 30 μM relative to 2’3’-cGAMP” value in the test on THP1 cells is listed as 77%.
The like results for `COc1cc2sc(C(=O)[C@H]3C[C@H]3C(=O)O)cc2cc1Br` (single isomer, unassigned) [Example 6, 2-(5-bromo-6-methoxybenzo[b]thiophene-2-carbonyl)cyclopropane-1-carboxylic acid] were, in that order, 0.703 µM and 130%.
In the case of `CCC(CC(=O)c1cc2cc(OC)c(OC)cc2s1)C(=O)O` (centres unmarked) [Example 1, 4-(5,6-dimethoxybenzo[b]thiophen-2-yl)-2-ethyl-4-oxobutanoic acid], the EC50 – broadly, the concentration giving half of the maximal effect – amounted to 3.41 µM at full-length HAQ STING and 5.17 µM at full-length WT STING. Also, the “% Effect at 30 μM relative to 2’3’-cGAMP” value in the test on THP1 cells is 144%.
For `COc1cc2cc(C(=O)CC(C(=O)O)C(C)C)sc2cc1OC` (centres unmarked) [Example 2, 4-(5,6-Dimethoxybenzo[b]thiophen-2-yl)-2-isopropyl-4-oxobutanoic acid], the values for the EC50 on full-length HAQ STING and at full-length WT STING were 9.59 µM and 11.2 µM, respectively. Moreover, in the test with THP1 cells, the “% Effect at 30 μM relative to 2’3’-cGAMP” value came out at 149%.
`COc1cc2cc(C(=O)CC(C(=O)O)C3CC3)sc2cc1OC` (centres unmarked) [Example 3, 2-Cyclopropyl-4-(5,6-dimethoxybenzo[b]thiophen-2-yl)-4-oxobutanoic acid] came in with a concentration for a half-maximal effect (EC50) at full-length HAQ STING of 10.6 µM. In addition, the inhibition (in general, how much of the control response was suppressed) at 20 µM on full-length WT STING stood at 41%. Further, in the test on THP1 cells, the “% Effect at 30 μM relative to 2’3’-cGAMP” value was found to be 59%.
Regarding `COc1cc2cc(C(=O)C3CC3C(=O)O)sc2cc1OC` (centres unmarked) [Example 4, 2-(5,6-Dimethoxybenzo[b]thiophene-2-carbonyl)cyclopropane carboxylic acid], the EC50 was found to be 1.9 µM at full-length HAQ STING and 1.14 µM at full-length WT STING. For the same compound, the “% Effect at 30 μM relative to 2’3’-cGAMP” value with THP1 cells is recorded as 34%.
Compound `COc1cc2sc(C(=O)CCC(=O)O)cc2cc1Cl` [Example 7, 4-(5-Chloro-6-methoxybenzo[b]thiophen-2-yl)-4-oxobutanoic acid] had a 50% effective concentration (EC50) on full-length HAQ STING of 9.34 µM. The compound also showed an inhibition at 20 µM on full-length WT STING of 20%. For the same compound, the “% Effect at 30 μM relative to 2’3’-cGAMP” value in the test on THP1 cells was 290%.
Regarding `C=Cc1cc2sc(C(=O)CCC(=O)O)cc2cc1OC` [Example 8, 4-(5-Methoxy-6-vinylbenzo[b]thiophen-2-yl)-4-oxobutanoic acid], the EC50 came out at 6.77 µM on full-length HAQ STING and 15.5 µM on full-length WT STING. Besides, in the test on THP1 cells, the “% Effect at 30 μM relative to 2’3’-cGAMP” value amounted to 260%.
On to `COc1cc2cc(C(=O)CCC(=O)O)sc2cc1Br` [Example 9, 4-(6-Bromo-5-methoxybenzo[b]thiophen-2-yl)-4-oxobutanoic acid], for which the EC50 on full-length HAQ STING was 2.58 µM; on full-length WT STING it was 10.9 µM. Moreover, in the test with THP1 cells, the “% Effect at 30 μM relative to 2’3’-cGAMP” value is on record as 298%.
On to `CNc1cc2cc(C(=O)CCC(=O)O)sc2cc1OC` [Example 10, 4-(6-Methoxy-5-(methylamino)benzo[b]thiophen-2-yl)-4-oxobutanoic acid], for which the 50% effective concentration (EC50) at full-length HAQ STING amounted to 14 µM. Further, at full-length WT STING, the inhibition at 20 µM worked out at 31%. Also, in the test on THP1 cells, the “% Effect at 30 μM relative to 2’3’-cGAMP” value was 182%.
On to `COc1cc2cc(C(=O)C[C@H](C)C(=O)O)sc2cc1OC` [Example 11, (S)-4-(5,6-Dimethoxybenzo[b]thiophen-2-yl)-2-methyl-4-oxobutanoic acid], for which the half-maximal effective concentration (EC50) on full-length HAQ STING came to 2.73 µM; on full-length WT STING it was 3.87 µM. The “% Effect at 30 μM relative to 2’3’-cGAMP” value with THP1 cells was 132%.
As for `COc1cc2cc(C(=O)CCC(=O)OC(C)(C)C)sc2cc1OC` [Example 12, tert-butyl 4-(5,6-dimethoxybenzo[b]thiophen-2-yl)-4-oxobutanoate], in the test on THP1 cells, the “% Effect at 30 μM relative to 2’3’-cGAMP” value amounted to 16%.
Still for that read-out and setting: to `COc1cc2sc(C(=O)CCC(=O)O)cc2c(F)c1OC` [Example 14, 4-(4-fluoro-5,6-dimethoxybenzo[b]thiophen-2-yl)-4-oxobutanoic acid] belongs 394%.
`CNc1cc2sc(C(=O)C[C@H](C)C(=O)O)cc2cc1OC` [Example 37, (S)-4-(5-methoxy-6-(methylamino)benzo[b]thiophen-2-yl)-2-methyl-4-oxobutanoic acid] showed an EC50 on full-length HAQ STING of 5.61 µM. Moreover, in the test on THP1 cells, the “% Effect at 30 μM relative to 2’3’-cGAMP” value stood at 42%.
As for `COc1cc2cc(C(=O)C[C@H](C)C(=O)O)sc2cc1SC` [Example 38, (S)-4-(5-methoxy-6-(methylthio)benzo[b]thiophen-2-yl)-2-methyl-4-oxobutanoic acid], on full-length HAQ STING, the EC50 was determined as 1.93 µM. Besides, the “% Effect at 30 μM relative to 2’3’-cGAMP” value in the test with THP1 cells came out at 154%.
At full-length HAQ STING, `C=Cc1cc2cc(C(=O)[C@@H]3C[C@@H]3C(=O)O)sc2cc1OC` [Example 39, (1S,2R)-2-(6-methoxy-5-vinylbenzo[b]thiophene-2-carbonyl)cyclopropane-1-carboxylic acid] yielded an EC50 of 1.15 µM. In addition, the “% Effect at 30 μM relative to 2’3’-cGAMP” value in the test with THP1 cells turned out to be 193%.
Regarding `COc1cc2sc(C(=O)C3CC3C(=O)O)cc2cc1SC` (centres unmarked) [Example 40, 2-(6-methoxy-5-(methylthio)benzo[b]thiophene-2-carbonyl)cyclopropane-1-carboxylic acid], the response on full-length HAQ STING was half-maximal at 3.94 µM (EC50). Moreover, the “% Effect at 30 μM relative to 2’3’-cGAMP” value in the test on THP1 cells is 93%.
In turn, `COc1cc2cc(C(=O)C[C@H](C)C(=O)O[C@H]3CSSC[C@@H]3O)sc2cc1OC` [Example 42, (S)-(4R,5R)-5-hydroxy-1,2-dithian-4-yl 4-(5,6-dimethoxybenzo[b]thiophen-2-yl)-2-methyl-4-oxobutanoate] showed a 50% effective concentration (EC50) on full-length HAQ STING of 0.759 µM. For the same compound, the “% Effect at 30 μM relative to 2’3’-cGAMP” value in the test on THP1 cells was 6%.
In the same order, the values of `CCCc1cc2sc(C(=O)C[C@H](C)C(=O)O)cc2cc1OC` [Example 44, (2S)-4-(5-methoxy-6-propyl-1-benzothiophen-2-yl)-2-methyl-4-oxobutanoic acid] are 15.7 µM and 20%.
`COc1cc2cc(C(=O)CCC(=O)O)sc2cc1CCF` [Example 45, 4-[6-(2-fluoroethyl)-5-methoxy-1-benzothiophen-2-yl]-4-oxobutanoic acid] displayed a concentration for a half-maximal effect (EC50) on full-length HAQ STING of 14.7 µM. For the same compound, the “% Effect at 30 μM relative to 2’3’-cGAMP” value in the test with THP1 cells turned out to be 104%.
For `CCCc1cc2cc(C(=O)C[C@H](C)C(=O)O)sc2cc1OC` [Example 47, (2S)-4-(6-methoxy-5-propyl-1-benzothiophen-2-yl)-2-methyl-4-oxobutanoic acid], the 50% effective concentration (EC50) on full-length HAQ STING stood at 5.06 µM. In addition, the “% Effect at 30 μM relative to 2’3’-cGAMP” value in the test on THP1 cells worked out at 90%.
In turn, `CCCC(CC(=O)c1cc2cc(OC)c(OC)cc2s1)C(=O)O` (centres unmarked) [Example 49, 2-(2-(5,6-dimethoxybenzo[b]thiophen-2-yl)-2-oxoethyl)pentanoic acid] gave an EC50 on full-length HAQ STING of 2.72 µM. The “% Effect at 30 μM relative to 2’3’-cGAMP” value in the test on THP1 cells stood at 111%.
In the same order, the values of `COc1cc2sc(C(=O)C[C@H](C)C(=O)O)cc2c2nc(C)oc12` [Example 54, (S)-4-(4-methoxy-2-methylthieno[2′,3′:5,6]benzo[1,2-d]oxazol-7-yl)-2-methyl-4-oxobutanoic acid] are 0.531 µM and 66%.
